# Measured values as given in patent US20140350081A1, “INSECT G-COUPLED RECEPTORS USEFUL AS TARGETS FOR INSECTICIDES AND COMPOUNDS AND REAGENTS IDENTIFIED USING THE SAME” (priority 2011, published 2014).
# Structures can show the parent of a compound that is named as a salt. Where two headings read alike, the source gives them in different places.
# Experiments:
# AaDOP2 = AaDOP2 (Aedes aegypti, UniProt H6D5H2); experiment: HTRF cAMP accumulation concentration response assay (Cisbio Dynamic 2); type: cell-based; settings: for IC50 ± S.E.M. (nM), HTRF cAMP assay: AaDOP2 expressing cells in the presence of dopamine, No Inhibition = <10% inhibition at 3 μM test compound
# Sequence of AaDOP2 (H6D5H2 entry or part of it): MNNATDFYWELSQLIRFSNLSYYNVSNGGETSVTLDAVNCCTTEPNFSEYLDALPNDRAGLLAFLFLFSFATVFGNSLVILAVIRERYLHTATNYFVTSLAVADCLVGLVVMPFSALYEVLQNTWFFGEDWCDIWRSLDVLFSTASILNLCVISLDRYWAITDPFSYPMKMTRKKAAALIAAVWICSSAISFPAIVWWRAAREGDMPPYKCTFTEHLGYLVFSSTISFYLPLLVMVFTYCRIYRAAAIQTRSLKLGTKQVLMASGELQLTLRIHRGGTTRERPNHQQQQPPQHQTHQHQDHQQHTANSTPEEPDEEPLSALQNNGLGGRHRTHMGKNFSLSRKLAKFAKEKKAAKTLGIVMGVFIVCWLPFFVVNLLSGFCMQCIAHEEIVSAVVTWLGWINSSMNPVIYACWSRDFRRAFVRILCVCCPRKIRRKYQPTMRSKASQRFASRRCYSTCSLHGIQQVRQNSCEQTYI
# Isdop2 = Isdop2 (Ixodes scapularis, UniProt A0ACM8DGL0); experiment: cell-based; settings: for inhibition at 10 µM: read-out: % Inhibition (of response to dopamine), Isdop2 screen
# Sequence of Isdop2 (A0ACM8DGL0 entry or part of it): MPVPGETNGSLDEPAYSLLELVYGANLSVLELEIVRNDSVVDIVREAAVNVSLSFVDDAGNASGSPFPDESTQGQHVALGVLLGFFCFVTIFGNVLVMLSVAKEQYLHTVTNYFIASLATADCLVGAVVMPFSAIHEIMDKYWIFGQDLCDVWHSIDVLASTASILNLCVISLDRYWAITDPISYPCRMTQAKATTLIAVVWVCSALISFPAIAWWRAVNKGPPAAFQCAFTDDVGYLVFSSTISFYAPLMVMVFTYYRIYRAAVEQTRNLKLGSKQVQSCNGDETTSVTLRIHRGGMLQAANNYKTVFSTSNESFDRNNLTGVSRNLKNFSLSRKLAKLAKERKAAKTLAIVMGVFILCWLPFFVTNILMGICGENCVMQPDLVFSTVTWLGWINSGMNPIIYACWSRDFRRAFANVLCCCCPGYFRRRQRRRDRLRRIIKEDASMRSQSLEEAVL
# Ae. aegypti L3 larvae = experiment: whole plant or invertebrate; settings: Aedes aegypti
# [1] = in vitro Concentration Response Curve assay, n = 2, relative to control antagonist Amitriptyline, read-out: Avg IC50
# [2] = 10 μM compound, footnote 3 mM dopamine
# [3] = 24 h, read-out: Toxicity to Aedes aegypti larvae (mortality) 24 hours, 400 μM, L3 larvae, three independent experiments
# [4] = 48 h, read-out: Toxicity to Aedes aegypti larvae (mortality) 48 hours, 400 μM, L3 larvae, three independent experiments
# [5] = 72 h, read-out: Toxicity to Aedes aegypti larvae (mortality) 72 hours, 400 μM, L3 larvae, three independent experiments
# [6] = 0.5 h, read-out: percent mortality 0.5 hr, 400 uM, L3 larvae, value for this scoring time
# [7] = 1 h, read-out: percent mortality 1 hr, 400 uM, L3 larvae, per scoring time
# [8] = 2 h, read-out: percent mortality 2 hr, 400 uM, L3 larvae, per scoring time
# [9] = 3 h, read-out: percent mortality 3 hr, 400 uM, L3 larvae, per scoring time
# [10] = 4 h, read-out: percent mortality 4 hr, 400 uM, L3 larvae, per scoring time
# [11] = 24 h, read-out: percent mortality 24 hr, 400 uM, L3 larvae, per scoring time
# [12] = 48 h, read-out: percent mortality 48 hr, 400 uM, L3 larvae, per scoring time
# [13] = 72 h, read-out: Cumulative % Mortality (72 hrs), 400 uM, L3 larvae
# [14] = 72 h, read-out: percent mortality 72 hr, 400 uM, L3 larvae, per scoring time
# [15] = […], read-out: percent mortality […], 400 uM, L3 larvae, per scoring time
molecule,measurement,setting,value
"CC(COc1ccccc1Cc1ccccc1)N1CCCCC1 (racemic) [Benproperine phosphate, (RS)-1-[2-(2-benzylphenoxy)-1-methylethyl]piperidine]",IC50,AaDOP2; [1],4.51 µM
"CN1CCN2c3ccccc3Cc3ccccc3C2C1 (racemic) [Mianserin, ((±)-2-methyl-1,2,3,4,10,14b-hexahydrodibenzo[c,f]pyrazino [1,2-a]azepine)]",inhibition at 10 µM,Isdop2,87%
"CSc1ccc2c(c1)N(CCC1CCCCN1C)c1ccccc1S2 (racemic) [Thioridazine, 10-{2-[(RS)-1-Methylpiperidin-2-yl]ethyl}-2-methylsulfanylphenothiazine]",inhibition at 10 µM,Isdop2,85%
"COC1=C(OC)C(=O)c2ccccc2C1=O [2,3-Dimethoxy-1,4-naphthoquinone]",inhibition at 10 µM,Isdop2,68%
CN1[C@@H]2CC[C@H]1C[C@@H](OC(c1ccccc1)c1ccccc1N)C2 (stereo partly shown) [Aminobenztropine],inhibition at 10 µM,Isdop2,71%
Cc1ccc(/N=C/N(C)/C=N/c2ccc(C)cc2C)c(C)c1 [Amitraz],"IC50 ± S.E.M. (nM), HTRF cAMP assay",AaDOP2,No Inhibition^a
"Clc1ccc2c(c1)C(N1CCNCC1)=Nc1ccccc1O2 [Amoxapine, 2-Chloro-11-(piperazin-1-yl)dibenzo[b,f][1,4]oxazepine]",inhibition at 10 µM,Isdop2,92%
O=c1cc(-c2ccc(O)cc2)oc2cc(O)cc(O)c12 [Apigenin],inhibition at 10 µM,Isdop2,98%
"CN1CCCC(n2nc(Cc3ccc(Cl)cc3)c3ccccc3c2=O)CC1 (stereo not shown) [Azelastine HCl, 4-[(4-chlorophenyl)methyl]-2-(1-methylazepan-4-yl)phthalazin-1-one hydrochloride]",IC50,AaDOP2,47.5 µM
COc1ccccc1N1CCN(CCCCNC(=O)c2ccc3ccccc3c2)CC1 [BP 897],inhibition at 10 µM,Isdop2,71%
O=C1CC2(CCCC2)CC(=O)N1CCCCN1CCN(c2ncccn2)CC1 [Buspirone],"IC50 ± S.E.M. (nM), HTRF cAMP assay",AaDOP2,No Inhibition^a
CCn1cnc2c(Nc3cccc(Cl)c3)nc(N[C@@H]3CCCC[C@@H]3N)nc21.Cl [CGP-74514A hydrochloride],"% Inhibition (of response to dopamine), Isdop2 screen",Isdop2,98%
"COc1ccccc1OCCNCC(O)COc1cccc2[nH]c3ccccc3c12 (stereo not shown) [Carvedilol, 1-(9H-Carbazol-4-yloxy)-3-[[2-(2-methoxyphenoxy)ethyl]amino]-2-propanol]",IC50,"AaDOP2; Avg IC50 (μM), in vitro Concentration Response Curve assay, n = 2, relative to control antagonist Amitriptyline",8.5 µM
"CCC(=O)Nc1ccc(Nc2nc(C)cc(Nc3ccccc3)n2)cc1 [Compound G869-0096, N-(4-((4-methyl-6-(phenylamino)pyrimidin-2-yl)amino)phenyl)propionamide]",IC50,AaDOP2; [1],4.74 µM
"CCCC(=O)Nc1ccc(Nc2nc(C)cc(Nc3ccccc3)n2)cc1 [Compound G869-0097, N-(4-((4-methyl-6-(phenylamino)pyrimidin-2-yl)amino)phenyl)butyramide]",IC50,AaDOP2; [1],6.05 µM
"Cc1cc(Nc2ccccc2)nc(Nc2ccc(NC(=O)C(C)C)cc2)n1 [Compound G869-0098, N-(4-((4-methyl-6-(phenylamino)pyrimidin-2-yl)amino)phenyl)isobutyramide]",IC50,AaDOP2; [1],3.1 µM
CN(C)CCC=C1c2ccccc2C=Cc2ccccc21 [Cyclobenzaprine],inhibition at 10 µM,Isdop2,95%
CN1CCC(=C2c3ccccc3C=Cc3ccccc32)CC1 [Cyproheptadine],inhibition at 10 µM,Isdop2,93%
OC[C@H]1O[C@@H](n2cnc3ccccc32)[C@H](O)[C@@H]1O [D-ribofuranosylbenzimidazole],"% Inhibition (of response to dopamine), Isdop2 screen",Isdop2; [2],82%
O=c1c(-c2ccc(O)cc2)coc2cc(O)ccc12 [Daidzein],inhibition at 10 µM,Isdop2,77%
Cc1cc(N)c2ccccc2[n+]1CCCCCCCCCC[n+]1c(C)cc(N)c2ccccc21 [Dequalinium dichloride],inhibition at 10 µM,Isdop2,75%
C[C@@H]1O[C@@H](O[C@H]2C[C@@H](O)[C@]3(CO)[C@H]4[C@H](O)C[C@]5(C)[C@@H]([C@@H]6COC(=O)C6)CC[C@]5(O)[C@@H]4CC[C@]3(O)C2)[C@H](O)[C@H](O)[C@H]1O [Dihydroouabain],"% Inhibition (of response to dopamine), Isdop2 screen",Isdop2; [2],76%
c1ccc2c(c1)[I+]c1ccccc1-2 [Diphenyleneiodonium chloride],inhibition at 10 µM,Isdop2,78%
CNCCC(Oc1ccc(C(F)(F)F)cc1)c1ccccc1 (stereo not shown) [Fluoxetine],mortality at 400 µM,Ae. aegypti L3 larvae; [3],43%
same,mortality at 400 µM,Ae. aegypti L3 larvae; [4],53%
same,mortality at 400 µM,Ae. aegypti L3 larvae; [5],53%
"OCCN1CCN(CCCN2c3ccccc3Sc3ccc(C(F)(F)F)cc32)CC1 [Fluphenazine, 2-[4-[3-[2-(trifluoromethyl)-10H-phenothiazin-10-yl]propyl]piperazin-1-yl]ethanol]",inhibition at 10 µM,Isdop2,79%
O=C1Nc2ccc(I)cc2/C1=C/c1cc(Br)c(O)c(Br)c1 [GW5074],"% Inhibition (of response to dopamine), Isdop2 screen",Isdop2,81%
O=c1c(-c2ccc(O)cc2)coc2cc(O)cc(O)c12 [Genistein],inhibition at 10 µM,Isdop2,71%
CC1CNCCN1S(=O)(=O)c1cccc2cnccc12.Cl.Cl (stereo not shown) [H-7 dihydrochloride],"% Inhibition (of response to dopamine), Isdop2 screen",Isdop2,73%
O=C1Nc2ccccc2/C1=C1/Nc2ccccc2/C1=N\O [Indirubin-3′-oxime],"% Inhibition (of response to dopamine), Isdop2 screen",Isdop2,93%
O=C(c1ccc(F)cc1)C1CCN(CCn2c(=O)[nH]c3ccccc3c2=O)CC1 [Ketanserin],mortality at 400 µM,Ae. aegypti L3 larvae; [6],0%
same,mortality at 400 µM,Ae. aegypti L3 larvae; [7],0%
same,mortality at 400 µM,Ae. aegypti L3 larvae; [8],0%
same,mortality at 400 µM,Ae. aegypti L3 larvae; [9],0%
same,mortality at 400 µM,Ae. aegypti L3 larvae; [10],0%
same,mortality at 400 µM,Ae. aegypti L3 larvae; [3],0%
same,mortality at 400 µM,Ae. aegypti L3 larvae; [11],0%
same,mortality at 400 µM,Ae. aegypti L3 larvae; [4],0%
same,mortality at 400 µM,Ae. aegypti L3 larvae; [12],0%
same,mortality at 400 µM,Ae. aegypti L3 larvae; [13],0%
same,mortality at 400 µM,Ae. aegypti L3 larvae; [5],0%
same,mortality at 400 µM,Ae. aegypti L3 larvae; [14],0%
same,mortality at 400 µM,Ae. aegypti L3 larvae; [15],0%
COc1ccccc1N1CCN(CCCCN2C(=O)c3ccccc3C2=O)CC1 [NAN-190 hydrobromide],inhibition at 10 µM,Isdop2,69%
C[C@@H]1O[C@@H](O[C@H]2C[C@@H](O)[C@]3(CO)[C@H]4[C@H](O)C[C@]5(C)[C@@H](C6=CC(=O)OC6)CC[C@]5(O)[C@@H]4CC[C@]3(O)C2)[C@H](O)[C@H](O)[C@H]1O [Ouabain],inhibition at 10 µM,Isdop2,86%
"COc1cccc(-c2cc(=O)c3ccccc3o2)c1N [PD 98,059]","% Inhibition (of response to dopamine), Isdop2 screen",Isdop2; [2],87%
NC(=Nc1ccccc1)NC(=O)c1nc(Cl)c(N)nc1N [Phenamil methanesulfonate],inhibition at 10 µM,Isdop2,72%
CN1CCN(CC(=O)N2c3ccccc3C(=O)Nc3cccnc32)CC1 [Pirenzepine],mortality at 400 µM,Ae. aegypti L3 larvae; [6],0%
same,mortality at 400 µM,Ae. aegypti L3 larvae; [7],0%
same,mortality at 400 µM,Ae. aegypti L3 larvae; [8],0%
same,mortality at 400 µM,Ae. aegypti L3 larvae; [9],0%
same,mortality at 400 µM,Ae. aegypti L3 larvae; [10],0%
same,mortality at 400 µM,Ae. aegypti L3 larvae; [3],0%
same,mortality at 400 µM,Ae. aegypti L3 larvae; [11],0%
same,mortality at 400 µM,Ae. aegypti L3 larvae; [4],0%
same,mortality at 400 µM,Ae. aegypti L3 larvae; [12],0%
same,mortality at 400 µM,Ae. aegypti L3 larvae; [13],0%
same,mortality at 400 µM,Ae. aegypti L3 larvae; [5],0%
same,mortality at 400 µM,Ae. aegypti L3 larvae; [14],0%
same,mortality at 400 µM,Ae. aegypti L3 larvae; [15],0%
"CN1CCN(CCCN2c3ccccc3Sc3ccc(Cl)cc32)CC1 [Prochlorperazine, 2-chloro-10-[3-(4-methyl-1-piperazinyl)propyl]-10H-phenothiazine]",inhibition at 10 µM,Isdop2,86%
CCN(CC)C(=O)N[C@H]1C[C@@H]2c3cccc4[nH]cc(c34)C[C@H]2N(C)C1 [R(+)-Terguride],"% Inhibition (of response to dopamine), Isdop2 screen",Isdop2,68%
"Cc1nc2n(c(=O)c1CCN1CCC(c3noc4cc(F)ccc34)CC1)CCCC2 [Risperidone, 4-[2-[4-(6-fluorobenzo[d]isoxazol-3-yl)-1-piperidyl]ethyl]-3-methyl-2,6-diazabicyclo[4.4.0]deca-1,3-dien-5-one]",inhibition at 10 µM,Isdop2,100%
CC[C@H](CO)Nc1nc(NCc2ccccc2)c2ncn(C(C)C)c2n1 [Roscovitine],inhibition at 10 µM,Isdop2,91%
C=C(C)[C@H]1Cc2c(ccc3c2O[C@@H]2COc4cc(OC)c(OC)cc4[C@@H]2C3=O)O1 [Rotenone],inhibition at 10 µM,Isdop2,77%
CC(=O)c1c(O)c(C)c(O)c(Cc2c(O)c3c(c(C(=O)/C=C/c4ccccc4)c2O)OC(C)(C)C=C3)c1O [Rottlerin],inhibition at 10 µM,Isdop2,97%
Cc1ccc(O)c(N=Nc2ccccc2)n1 [SIB 1757],"% Inhibition (of response to dopamine), Isdop2 screen",Isdop2; [2],100%
CN1CCc2cccc(Cl)c2CC1 [SKF86466],"% Inhibition (of response to dopamine), Isdop2 screen",Isdop2; [2],86%
Br.CN1CCc2cc(O)c(O)cc2C(c2ccccc2)C1 (stereo not shown) [SKF 75670 hydrobromide],"% Inhibition (of response to dopamine), Isdop2 screen",Isdop2,68%
C[n+]1cc2c3c(ccc2c2ccc4cc5c(cc4c21)OCO5)OCO3 [Sanguinarine chloride],inhibition at 10 µM,Isdop2,100%
"CN1CCN(CCCN2c3ccccc3Sc3ccc(C(F)(F)F)cc32)CC1 [Trifluoperazine, 10-[3-(4-methylpiperazin-1-yl)propyl]-2-(trifluoromethyl)-10H-phenothiazine]",inhibition at 10 µM,Isdop2,76%
CC(C)(C)c1cc(C=C(C#N)C#N)cc(C(C)(C)C)c1O [Tyrphostin A9],"% Inhibition (of response to dopamine), Isdop2 screen",Isdop2; [2],87%
CC(C)(C)c1cc(/C=C(\C#N)C(N)=S)cc(C(C)(C)C)c1O [Tyrphostin AG 879],"% Inhibition (of response to dopamine), Isdop2 screen",Isdop2,75%
O=C(N[C@@H](Cc1ccccc1)C(=O)CCl)OCc1ccccc1 [Z-L-Phe chloromethyl ketone],"% Inhibition (of response to dopamine), Isdop2 screen",Isdop2,90%
(±)-Butaclamol hydrochloride,"% Inhibition (of response to dopamine), Isdop2 screen",Isdop2,86%
